Measurements published in paper PMC11969171 (Biomedicine & pharmacotherapy = Biomedecine & …, 2022).
Positions count from the first letter of the chain named.

How the values were obtained:
A1R^wt [1] = target: T1, A1R^wt (Homo sapiens, UniProt P30542); conditions: CPA 200 nM
T1 sequence (P30542 1-326): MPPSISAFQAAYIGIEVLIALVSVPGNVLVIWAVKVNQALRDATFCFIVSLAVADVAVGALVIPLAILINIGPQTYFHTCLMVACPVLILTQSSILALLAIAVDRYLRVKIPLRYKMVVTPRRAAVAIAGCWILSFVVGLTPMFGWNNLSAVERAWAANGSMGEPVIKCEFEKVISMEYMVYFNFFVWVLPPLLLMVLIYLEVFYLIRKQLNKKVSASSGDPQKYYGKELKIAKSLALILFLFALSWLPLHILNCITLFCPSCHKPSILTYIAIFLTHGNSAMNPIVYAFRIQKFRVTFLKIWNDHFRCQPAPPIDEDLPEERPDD

A1R^G279S [2] = target: T2, A1R^G279S (Homo sapiens, UniProt P30542, G279S); conditions: CPA 200 nM
T2 sequence (P30542 1-326 G279S): T1 sequence (P30542 1-326) with G279S

A1R^wt [3] = target: T1, A1R^wt; format: binding; conditions: saturating concentration of DPCPX (1 µM)
A1R^G279S [4] = target: T2, A1R^G279S; format: binding; conditions: saturating concentration of DPCPX (1 µM)
[5] = system: corticostriatal glutamate release; conditions: rats, local application, ref [64]; cited from earlier work

SMILES: OC[C@H]1O[C@@H](n2cnc3c(NC4CCCC4)ncnc32)[C@H](O)[C@@H]1O [CPA, N6-cyclopentyladenosine]
- functional coupling to Gα12/13, Gαs, β-arrestin2 or GRK2 (A1R^wt [1]): No functional coupling
- time to peak of NL-generated signal (A1R^wt [1]; Gαi-LgBiT or Gαq-LgBiT, decline to basal after 1 h): 10 min
- functional coupling to Gα12/13, Gαs, β-arrestin2 or GRK2 (A1R^G279S [2]): No functional coupling

SMILES: CCCn1c(=O)c2[nH]c(C3CCCC3)nc2n(CCC)c1=O [DPCPX, 8-cyclopentyl-1,3-dipropylxanthine]
- displacement of CA200634 binding (A1R^wt [3]): displaced
- displacement of CA200634 binding (A1R^G279S [4]): displaced

SMILES: OCCN(CCO)c1nc(N2CCCCC2)c2nc(N(CCO)CCO)nc(N3CCCCC3)c2n1 [dipyridamole]
- basal and optogenetic-induced corticostriatal glutamate release [5]: significant decrease
